Data as given in patent US9107926B2, “Mutant selectivity and combinations of a phosphoinositide 3-kinase inhibitor compound and chemotherapeutic agents for the treatment of cancer” (Genentech, Inc., priority 2012, dated 2015).

Experiments:
IPC298 = experiment: CellTiter-Glo cell proliferation assay; type: cell-based; settings: Homo sapiens, IPC-298, Melanoma, NRAS Q61L
CAL-148 = experiment: CellTiter-Glo cell proliferation assay; type: cell-based; settings: Homo sapiens, Breast, Kinase(HET.1047H > R)/-PTEN
Protocol: (§1) Cell Culture Medium: RPMI or DMEM high glucose, 10% Fetal Bovine Serum, 2 mM L-Glutamine, P/S. Incubate O/N (overnight) at 37° C., 5% CO2.
(§2) Drug Addition to Cells, Cell Plate (1:10 dilution): Add 6 μl of media+compound directly to cells (54 μl of media on the cells already). Incubate 3 days at 37° C., 5% CO2 in an incubator that will not be opened often.
(§3) Day 5—Develop Plates, Thaw Cell Titer Glo Buffer at room temperature: Remove Cell Plates from 37° C. and equilibrate to room temperature for about 30 minutes. Add Cell Titer-Glo® Buffer to Cell Titer-Glo® Substrate (bottle to bottle). Add 30 μl Cell Titer-Glo® Reagent (Promega cat.#G7572) to each well of cells. Place on plate shaker for about 30 minutes. Read luminescence on Analyst HT Plate Reader (half second per well).

EFM-19 = experiment: CellTiter-Glo cell proliferation assay; type: cell-based; settings: Homo sapiens, Breast, Kinase-HOM.1047H > L
Protocol: as §1, §2, §3

HCC-1428 = experiment: CellTiter-Glo cell proliferation assay; type: cell-based; settings: Homo sapiens, HCC1428, Breast, WT
HCC-70 = experiment: CellTiter-Glo cell proliferation assay; type: cell-based; settings: Homo sapiens, HCC70, Breast, PTEN
HCC1954 = experiment: CellTiter-Glo cell proliferation assay; type: cell-based; settings: Homo sapiens, Breast, Kinase-HOM.1047H > L
Protocol: as §1, §2, §3

KPL4 = experiment: CellTiter-Glo cell proliferation assay; type: cell-based; settings: Breast, Kinase-HET.1047H > R, HET.350D > N
Protocol: as §1, §2, §3

MFM223 = experiment: CellTiter-Glo cell proliferation assay; type: cell-based; settings: Homo sapiens, MFM-223, Breast, Kinase-HET.1047H > R, HET.350D > N
Protocol: as §1, §2, §3

EFM-192A = experiment: CellTiter-Glo cell proliferation assay; type: cell-based; settings: Breast, HET.420C > R
HCC-2218 = experiment: CellTiter-Glo cell proliferation assay; type: cell-based; settings: Homo sapiens, HCC2218, Breast, WT
ZR75-30 = experiment: CellTiter-Glo cell proliferation assay; type: cell-based; settings: Homo sapiens, ZR-75-30, Breast, WT
SW620 = experiment: CellTiter-Glo cell proliferation assay; type: cell-based; settings: Homo sapiens, SW-620, Colon, K-RAS
KM12 = experiment: CellTiter-Glo cell proliferation assay; type: cell-based; settings: Homo sapiens, Colon, PTEN
LN-229 = experiment: CellTiter-Glo cell proliferation assay; type: cell-based; settings: Homo sapiens, Glioma, Helical-HET.545E > K
G22 = experiment: CellTiter-Glo cell proliferation assay; type: cell-based; settings: Glioma, PTEN
MO59K = experiment: CellTiter-Glo cell proliferation assay; type: cell-based; settings: Glioma, PTEN/KRAS
MO59J = experiment: CellTiter-Glo cell proliferation assay; type: cell-based; settings: Glioma, PTEN/KRAS
SF268 = experiment: CellTiter-Glo cell proliferation assay; type: cell-based; settings: Homo sapiens, SF-268, Glioma, WT
H838 = experiment: CellTiter-Glo cell proliferation assay; type: cell-based; settings: Homo sapiens, NCI-H838, Lung(NSCLC), WT
Protocol: as §1, §2, §3

A549 = experiment: CellTiter-Glo cell proliferation assay; type: cell-based; settings: Homo sapiens, Lung(NSCLC), K-RAS
H2030 = experiment: CellTiter-Glo cell proliferation assay; type: cell-based; settings: Homo sapiens, NCI-H2030, Lung(NSCLC), K-RAS
HOP62 = experiment: CellTiter-Glo cell proliferation assay; type: cell-based; settings: Homo sapiens, HOP-62, Lung(NSCLC), K-RAS
A427 = experiment: CellTiter-Glo cell proliferation assay; type: cell-based; settings: Homo sapiens, A-427, Lung(NSCLC), K-RAS
Calu-6 = experiment: CellTiter-Glo cell proliferation assay; type: cell-based; settings: Homo sapiens, Lung(NSCLC), K-RAS
HOP92 = experiment: CellTiter-Glo cell proliferation assay; type: cell-based; settings: Homo sapiens, HOP-92, Lung(NSCLC), WT
H1781 = experiment: CellTiter-Glo cell proliferation assay; type: cell-based; settings: NCI-H1781, Lung(NSCLC), PTEN
H322 = experiment: CellTiter-Glo cell proliferation assay; type: cell-based; settings: NCI-H322, Lung(NSCLC), WT
H2171 = experiment: CellTiter-Glo cell proliferation assay; type: cell-based; settings: Homo sapiens, NCI-H2171, Lung(SC), K-RAS
888-MEL = experiment: CellTiter-Glo cell proliferation assay; type: cell-based; settings: Homo sapiens, Melanoma, B-Raf
C32 = experiment: CellTiter-Glo cell proliferation assay; type: cell-based; settings: Homo sapiens, Melanoma, PTEN/B-Raf
Caov3 = experiment: CellTiter-Glo cell proliferation assay; type: cell-based; settings: Homo sapiens, Caov-3, Ovarian, WT
OVCAR3 = experiment: CellTiter-Glo cell proliferation assay; type: cell-based; settings: Homo sapiens, OVCAR-3, Ovarian, WT
EFO21 = experiment: CellTiter-Glo cell proliferation assay; type: cell-based; settings: Homo sapiens, EFO-21, Ovarian, PTEN
TOV21GX1 = experiment: CellTiter-Glo cell proliferation assay; type: cell-based; settings: Ovarian, PTEN/HET.1047H > Y
[1] = system: Endocrine-resistant MCF7-ARO cells; experiment: 4 day CellTiter-Glo assay in endocrine resistant cells; type: cell-based, human; settings: obtained by letrozole dose escalation over about 4 months
[2] = system: HCC1954.x1 breast tumor xenografts; experiment: In vivo mouse tumor xenograft efficacy; design: species or system mice; settings: for % TGI@ day 21: QD x 21, PO
Protocol: The term uL means microliter.
Xenografts were initiated with cancer cells. […] Volume was calculated using the formula: […]

PI3K alpha H1047R mutant = PI3K alpha H1047R mutant (Homo sapiens, UniProt P42336, H1047R); settings: relative to PI3K alpha
Chain of PI3K alpha H1047R mutant (P42336 whole entry H1047R): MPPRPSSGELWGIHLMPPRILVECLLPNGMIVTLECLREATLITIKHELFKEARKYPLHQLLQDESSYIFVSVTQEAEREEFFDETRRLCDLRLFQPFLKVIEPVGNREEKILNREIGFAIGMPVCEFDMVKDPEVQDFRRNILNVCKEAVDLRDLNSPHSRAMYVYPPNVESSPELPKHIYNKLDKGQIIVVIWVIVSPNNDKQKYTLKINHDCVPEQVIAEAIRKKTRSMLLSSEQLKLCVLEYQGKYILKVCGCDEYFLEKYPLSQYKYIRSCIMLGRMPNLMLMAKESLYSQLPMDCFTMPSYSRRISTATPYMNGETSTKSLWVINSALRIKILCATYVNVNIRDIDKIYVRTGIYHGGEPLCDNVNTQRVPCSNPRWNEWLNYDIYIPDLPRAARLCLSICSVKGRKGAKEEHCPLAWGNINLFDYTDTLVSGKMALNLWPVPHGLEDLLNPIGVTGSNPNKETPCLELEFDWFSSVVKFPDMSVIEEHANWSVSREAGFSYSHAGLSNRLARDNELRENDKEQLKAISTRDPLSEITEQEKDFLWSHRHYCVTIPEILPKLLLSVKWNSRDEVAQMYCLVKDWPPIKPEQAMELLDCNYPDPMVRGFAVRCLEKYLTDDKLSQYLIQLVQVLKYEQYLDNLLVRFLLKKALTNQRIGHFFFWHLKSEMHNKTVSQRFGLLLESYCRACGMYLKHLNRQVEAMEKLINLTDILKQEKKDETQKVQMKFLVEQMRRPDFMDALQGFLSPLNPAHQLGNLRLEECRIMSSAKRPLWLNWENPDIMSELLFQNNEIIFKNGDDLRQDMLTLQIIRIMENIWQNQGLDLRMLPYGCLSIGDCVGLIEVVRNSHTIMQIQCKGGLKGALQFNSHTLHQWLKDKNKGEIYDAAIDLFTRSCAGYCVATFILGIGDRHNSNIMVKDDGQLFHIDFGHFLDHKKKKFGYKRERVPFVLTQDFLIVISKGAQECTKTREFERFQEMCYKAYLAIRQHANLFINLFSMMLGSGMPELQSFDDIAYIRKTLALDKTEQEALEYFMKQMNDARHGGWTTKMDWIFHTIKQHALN
Chain of PI3K alpha H1047R mutant (P27986 whole entry partner): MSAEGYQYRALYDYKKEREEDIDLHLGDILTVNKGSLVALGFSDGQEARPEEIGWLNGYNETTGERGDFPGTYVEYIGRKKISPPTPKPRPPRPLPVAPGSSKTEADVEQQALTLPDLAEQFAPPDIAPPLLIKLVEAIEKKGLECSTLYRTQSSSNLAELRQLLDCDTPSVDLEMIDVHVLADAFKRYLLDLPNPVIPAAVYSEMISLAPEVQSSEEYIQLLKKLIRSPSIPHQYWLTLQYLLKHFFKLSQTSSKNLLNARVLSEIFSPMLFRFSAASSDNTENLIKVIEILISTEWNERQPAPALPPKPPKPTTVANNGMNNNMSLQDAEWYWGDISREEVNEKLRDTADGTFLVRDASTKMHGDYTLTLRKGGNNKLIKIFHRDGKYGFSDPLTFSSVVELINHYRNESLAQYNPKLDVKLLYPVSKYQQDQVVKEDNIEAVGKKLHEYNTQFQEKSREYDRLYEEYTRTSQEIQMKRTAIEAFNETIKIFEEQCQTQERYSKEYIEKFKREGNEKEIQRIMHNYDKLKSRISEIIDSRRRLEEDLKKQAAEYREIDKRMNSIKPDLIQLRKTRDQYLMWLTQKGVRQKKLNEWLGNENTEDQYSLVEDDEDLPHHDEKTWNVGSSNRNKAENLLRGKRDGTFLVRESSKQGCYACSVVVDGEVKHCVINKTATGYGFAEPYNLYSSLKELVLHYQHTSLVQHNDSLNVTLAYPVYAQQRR
Protocol: After an incubation time of 30 minutes at room temperature, the reactions were stopped by the addition of GRP-1 and PIP3-TAMRA probe (Echelon-Inc., Salt Lake City, Utah.) 100 nM and 5 nM final concentrations respectively. Read with standard cut-off filters for the rhodamine fluorophore (λex=530 nm; λem=590 nm) in 384-well black low volume Proxiplates® (PerkinElmer, Wellesley, Mass.) Fluorescence polarization values were plotted as a function of the protein concentration. EC50 values were obtained by fitting the data to a four-parameter equation using KaleidaGraph® software (Synergy software, Reading, Pa.). This experiment also establishes the appropriate protein concentration to use in subsequent competition experiments with inhibitors.
After an incubation time of 30 minutes at room temperature, the reactions were stopped by the addition of GRP-1 and PIP3-TAMRA probe (Echelon-Inc., Salt Lake City, Utah.) 100 nM and 5 nM final concentrations respectively.
The compound was serially diluted in 100% DMSO. The kinase reaction was incubated for 1 h at room temperature, and the reaction was terminated by the addition of PBS. IC50 values were subsequently determined using sigmoidal dose-response curve fit (variable slope).

[3] = system: SW48 PIK3CA E545K knock-in mutant subclone; experiment: four day CellTiter-Glo viability assay, SW48 isogenic cell line set; settings: Homo sapiens, SW48, 96 h, read-out: Viability EC50
From the text: SW48 parental cells and knock-in mutant subclones harboring common PIK3CA hotspot mutations E545K or H1047R were obtained from Horizon Discovery.

Cc1nc(-c2cn3c(n2)-c2ccc(-c4cnn(C(C)(C)C(N)=O)c4)cc2OCC3)n(C(C)C)n1 [GDC-0032, 2-(4-(2-(1-isopropyl-3-methyl-1H-1,2,4-triazol-5-yl)-5,6-dihydrobenzo[f]imidazo[1,2-d][1,4]oxazepin-9-yl)-1H-pyrazol-1-yl)-2-methylpropanamide] was tested, and the EC50 (IPC298) was 10000 nM, the EC50 (CAL-148) was 375 nM and the EC50 (EFM-19) was 13 nM. For the same compound, the EC50 (HCC-1428) was 10000 nM, the EC50 (HCC-70) was 43 nM and the EC50 (HCC1954) was 102 nM. The EC50 (KPL4) was 16 nM, the EC50 (MFM223) was 211 nM and the EC50 (EFM-192A) was 101 nM. It also gave an EC50 (HCC-2218) of 90 nM, an EC50 (ZR75-30) of 21 nM and an EC50 (SW620) of 10000 nM. The EC50 (KM12) was 4690 nM, the EC50 (LN-229) was 3410 nM and the EC50 (G22) was 6020 nM. It also gave an EC50 (MO59K) of 4980 nM, an EC50 (MO59J) of 5650 nM and an EC50 (SF268) of 1070 nM. The EC50 (H838) was 3100 nM, the EC50 (A549) was 906 nM and the EC50 (H2030) was 2310 nM. For the same compound, the EC50 (HOP62) was 3090 nM, the EC50 (A427) was 10000 nM and the EC50 (Calu-6) was 10000 nM. It also gave an EC50 (HOP92) of 1690 nM, an EC50 (H1781) of 561 nM and an EC50 (H322) of 280 nM. For the same compound, the EC50 (H2171) was 1450 nM, the EC50 (888-MEL) was 10000 nM and the EC50 (C32) was 5810 nM. For the same compound, the EC50 (Caov3) was 4780 nM, the EC50 (OVCAR3) was 398 nM and the EC50 (EFO21) was 10000 nM. The EC50 (TOV21GX1) was 10000 nM, the “sensitivity of endocrine-resistant cells” value [1] was “sensitive to GDC-0032” and the “% TGI@ day 21” value ([2]; 1.56 mg/kg) was 53%. For the same compound, the “% TGI@ day 21” value ([2]; 3.125 mg/kg) was 79%, the “% TGI@ day 21” value ([2]; 6.25 mg/kg) was 98% and the “% TGI@ day 21” value ([2]; 12.5 mg/kg) was 118%. The “% TGI@ day 21” value ([2]; 25 mg/kg) was 138%, the “maximum TGI” value ([2]; daily dosing, end of dosing on day 21) was 138% and the tumor response ([2]; doses of 12.5 and 25 mg/kg) was “Tumor regressions were observed”. The “PI3K alpha H1047R mutant” value (PI3K alpha H1047R mutant) was 0.4x and the EC50 [3] was 5 nM.
